A melting point compilation (Tetko et al.; mined from patent text by program, amines drawn as free bases though some values may be those of a salt)

`CN(C)C(=O)c1ccc(S(=O)(=O)c2ccc(NC(=O)[C@@](C)(O)C(F)(F)F)c(Cl)c2)cc1` gave a melting point of 120 °C. Work on `COC(=O)C(=O)c1ccc(OCC#Cc2ccccc2)cc1` yielded a melting point of 57 to 59 °C. For `C[Si](C)(C)c1ccc(Cl)c(Cl)c1C(=O)O`, the melting point was 117 to 119 °C. `Cc1cc(N=CN(C)C)c(C)cc1O` gave a melting point of 212 °C. With `Nc1ncc(C2CCN(c3ccc([N+](=O)[O-])cc3)CC2)c(N)n1` the melting point was > 250 °C. `Nc1ccc(OCC2COCCO2)cc1` (stereo not drawn) gave a melting point of 86 to 87 °C. With `CS(=O)(=O)c1ccc(/C(=C\CC2CCCC2)C(=O)O)cc1` the melting point was 162 to 165 °C. In the case of `O=[N+]([O-])c1cc(Br)ccc1N1CCc2cc(Br)ccc21`, the melting point was 150 to 152 °C. In the case of `Cn1ncc(C(=O)O)c1C(=O)Nc1ccn2nc(Br)nc2c1`, the melting point was > 250 °C. `COc1ccccc1C(=O)CC(=O)c1ccccc1O` showed a melting point of 80 to 84 °C. `CC1(C=NO)OCCc2c1[nH]c1ccccc21` (stereo not drawn) showed a melting point of 176 to 178 °C. For `FC(F)(F)c1ccc2nc(N3CCN(c4ncccc4Cl)CC3)[nH]c2c1`, the melting point was 208 to 210 °C. In the case of `CCCN1CC[C@@H]2CC(=O)c3cc(F)ccc3[C@@H]2C1` (relative stereo), the melting point was > 220 °C. Compound `CC(O)c1ccc(OCCCCl)c(O)c1` (stereo not drawn) has a melting point of 107 to 109 °C. In the case of `Cc1ccc(C2=NNC(=O)CC2)cc1O`, the melting point was 216 to 218 °C. Compound `O=c1[nH]c2cc(-c3ccncc3)ccc2c(=O)o1` has a melting point of 265 to 267 °C. For `CCC(=O)Oc1cccc2c1C(=O)c1c(OC(=O)CC)cccc1C2C(=O)CC(C)C`, the melting point was 124 °C. In the case of `CCCCOc1ccc(CCCCCCCCC(=O)NO)cc1`, the melting point was 99 to 101 °C. For `OCc1c(Cl)c(Cl)c(Cl)c(CO)c1Cl`, the melting point was 228 to 230 °C. Compound `O=C(NCCCCCCOC(=O)N1CCC(O)CC1)Oc1ccc(Oc2ccccc2)cc1` has a melting point of 48 to 55 °C. `COc1ccc(CCCC2OC(=O)NC2=O)cc1OCc1nc(-c2ccccc2)oc1C` (stereo not drawn) gave a melting point of 185 to 187 °C. `CC(=O)Oc1ccc(-c2cnc(NS(=O)(=O)Cc3ccccc3)c(Cc3ccccc3)n2)cc1` gave a melting point of 240 to 241 °C. In the case of `O=C1Cc2cc(Cl)cc(C(=O)c3ccccc3)c2N1`, the melting point was 186 to 187 °C. In the case of `Cc1cc(C)c(/C=C/[C@@H](O)C[C@@H](O)CC(=O)OCOC(=O)C(C)(C)C)c(-c2ccc(F)c(C)c2)c1`, the melting point was 97 to 98 °C. In the case of `COc1cc2c(cc1OC)N(C(=O)OCc1ccccc1)C(C)CC2=O` (stereo not drawn), the melting point was 128 to 130 °C. `COc1ccc2c(C(F)(F)F)cc(=O)[nH]c2c1NC(C)=O` gave a melting point of 280 °C. In the case of `COC(=O)Cc1ccccc1NC(=S)NN(C)C`, the melting point was 130 to 131 °C. Work on `Cc1ccc(Sc2ccc(C)cc2)cc1` yielded a melting point of 56.5 °C. `COc1ccc(Nc2ncccc2NS(=O)(=O)c2ccc(O)cc2)cc1` gave a melting point of 214 to 216 °C. In the case of `Brc1ccc2c(c1)C(c1ccccn1)=NCc1nncn1-2`, the melting point was 252 to 255 °C. For `N#CC1(N)CCc2cccc(Cl)c2C1` (stereo not drawn), the melting point was 67 to 69 °C. `COC(=O)c1nn(Cc2cccc(OC)c2)c2c1CCc1cc(OCc3cncnc3)ccc1-2` gave a melting point of 184 °C. `CC(C)(C)N1Cc2ccccc2P1(=O)c1ccccc1` (stereo not drawn) showed a melting point of 89 to 91 °C. With `c1cnc2c(c1)NCCCC2` the melting point was 70 to 71 °C. With `Cc1ccc2nc(/C=C/c3ccccc3)n(-c3ccccn3)c2c1` the melting point was 164 to 165 °C. In the case of `COC(=O)c1ccc(S(=O)C(Cn2ccnc2)c2ccccc2OC)cc1` (stereo not drawn), the melting point was 113 to 115 °C. Work on `O=C1NCN(c2ccccc2)C12CCN(CC1CCc3ccccc3O1)CC2` (stereo not drawn) yielded a melting point of 192 to 194 °C. With `C#CCOc1ccc(CC(=O)O)cc1[N+](=O)[O-]` the melting point was 135 to 137 °C. `Cc1[nH]c2ccccc2c1CCCN1CCC(c2noc3ccc(F)cc23)CC1` showed a melting point of 144 to 146 °C. Compound `Cn1c(C(F)(F)F)cc(=O)n(-c2ccc3snc(CF)c3c2)c1=O` has a melting point of 201 to 202 °C. For `N#CN1CCC(c2n[nH]c3cc(F)ccc23)CC1`, the melting point was 143 to 145 °C. In the case of `Cc1c(C)c2c(c(C)c1O)CC(C)C(C(=S)Nc1ccccc1)O2` (stereo not drawn), the melting point was 175 °C. Compound `CC(C)c1nn(-c2ccc(Cl)cc2NO)c(=O)o1` has a melting point of 129 °C. `CCc1nc2c(C)cc(C)nc2n1Cc1ccc(-c2ccccc2-c2nc(=O)o[nH]2)cc1` showed a melting point of 149 to 152 °C. `CCOC(=O)C=C1NC(C)=C(C(=O)OCC)C(c2ccccc2C(F)(F)F)C1C(=O)OCC` (stereo not drawn) showed a melting point of 98 to 99 °C. `CN(C)C1CCc2[nH]c3cccc(F)c3c2C1` (stereo not drawn) showed a melting point of 166 to 168 °C. Compound `CCCc1c(OCCCCCC(=O)NCCCCCCc2cccnc2)ccc(C(C)=O)c1O` has a melting point of 56 to 58 °C. Work on `NS(=O)(=O)c1cc2cc(O)c(O)cc2s1` yielded a melting point of 233 to 235 °C. `O=C(Cc1ccc(O)cc1)OCCC(c1ccccc1)(c1ccccc1)c1ccccc1` showed a melting point of 136 to 138 °C. Work on `CC1C(=C[N+](=O)[O-])Nc2ccc(Cl)cc2C(c2ccccc2F)=[N+]1[O-]` (stereo not drawn) yielded a melting point of 198 to 200 °C. In the case of `COc1cc(O)c([N+](=O)[O-])cc1C(F)(F)F`, the melting point was 77 to 78 °C. For `CCc1noc(C)c1-c1[nH]c2ccccc2c1CCCN(C)C`, the melting point was 131 to 133 °C. Work on `CCN(CC)C(=O)c1ccc(-c2ccc(-c3ccccc3)c(-c3ccc4c(c3)C(C)(C)CCC4(C)C)c2)cc1` yielded a melting point of 113 °C. Work on `CCCN(CCC)CCc1ccc(OCc2ccccc2)c(NC(N)=O)c1` yielded a melting point of 70 to 88 °C. Work on `Brc1c(C2=NOCCS2)sc2ccccc12` yielded a melting point of 80 to 85 °C. `O=C(Nc1ccccc1C(=O)NCCc1nccs1)c1ccc(Cl)cc1` gave a melting point of 156 to 160 °C. `CCOc1cc2ncc(C#N)c(Nc3ccc(OCc4cccc(F)c4)c(Cl)c3)c2cc1NC(=O)/C=C/CN(C)C` gave a melting point of 165 to 167 °C. For `CC1CCC(Nc2nccc(Oc3ccc(NC(=O)c4cc(F)cc(N5CCOCC5)c4)c4ccccc34)n2)CC1` (stereo not drawn), the melting point was 116 to 117 °C. Compound `COc1cccc(C2COc3c(C)c(C)c(NC(=O)CC(C)(C)C)c(C)c32)c1` (stereo not drawn) has a melting point of 169 to 170 °C. In the case of `COc1ccc(N2C(=O)[C@H]([C@@H](C)O)[C@H]2S(=O)(=O)c2ccccc2)cc1`, the melting point was 191 to 195 °C. Compound `CCCCOc1cccc(CCNC(=O)C(Br)=Cc2ccccc2)c1` has a melting point of 38 to 39 °C. For `Cc1cc(C(=O)c2cccc(Cc3ccccc3)c2)c(O)c2ncccc12`, the melting point was 123 to 124 °C. With `CCc1[nH]n(C2CCCC2)c2nc(-c3cccc(-n4ccnc4)c3)nc(=O)c1-2` the melting point was 264 to 265 °C. `COc1cccc(C(=Cc2ccccc2)c2cccc(OC)c2OC)c1OC` showed a melting point of 138 °C. `CC(=O)c1sc(N2CCN(CCCC(F)(F)F)C2=O)nc1C` showed a melting point of 108 to 110 °C. `CCCCCCCCCCCCNC(=O)n1nc(Oc2ncc(C(F)(F)F)cc2Cl)cc1C` gave a melting point of 56 to 57 °C. In the case of `Fc1ccc2[nH]c3c(c2c1)CN(CCCc1cccnc1)CC3`, the melting point was 215 to 218 °C. `CN(C)C(=O)CC1(O)C(=O)Nc2ccc(I)cc21` (stereo not drawn) gave a melting point of 246 °C. Work on `Nc1nc(SCCC(=O)c2ccccc2)c2[nH]cnc2n1` yielded a melting point of 204 to 205 °C. For `Cc1c(O)c(C)c(Br)c(C)c1Br`, the melting point was 144 to 146 °C. `CS(=O)(=O)N(Cc1cccnc1)c1ccc(Cl)cc1` showed a melting point of 138 to 140 °C. Compound `CC1(C)C=C(N2CCCCC2=O)c2cc(C#N)ccc2O1` has a melting point of 162 to 163 °C. In the case of `CC(C)(C)OC(=O)c1ncn2c1[C@@H]1CCN1C(=O)c1ccccc1-2`, the melting point was 185 to 187 °C. Compound `CC1=CC2=C(N3CN(n4cc(C)nc4-c4cc(Cl)ccc4Cl)C=C3N=N2)N(c2cc(Cl)ccc2Cl)C1` has a melting point of 130 °C. In the case of `N#CC(c1ccc(Cl)cc1)c1ccc(-n2ncc(=O)[nH]c2=O)cc1Cl` (stereo not drawn), the melting point was 197 °C. `COc1cc(OC)c2c(C)c(CCN3CCN(c4ccccc4OC)CC3)c(=O)oc2c1` gave a melting point of 140 to 142 °C. `CCOC(=O)c1ncc2[nH]c3ccc(Cl)cc3c2c1C` showed a melting point of 225 to 228 °C. Work on `COc1ccc2nc(CBr)ccc2c1` yielded a melting point of 103 °C. With `CS(=O)(=O)c1ccc(/C(=C2\N=C(c3ccccc3)OC2=O)c2ccc(Cl)cc2)cc1` the melting point was 226 °C. For `CCCc1c(C(=O)C(C)C)c2ccc(C(=O)OC)cc2n1Cc1c(Cl)cccc1Cl`, the melting point was 130 to 132 °C. In the case of `COC(=O)c1nc2ccc(NCCCN3CCC(OC(c4ccccc4)c4ccccc4)CC3)nn2n1`, the melting point was 93 to 96 °C. In the case of `CC1(C2CCCC2)Cc2cc(OCCCCCC(=O)O)c(Cl)c(Cl)c2C1=O` (stereo not drawn), the melting point was 127 to 129 °C. In the case of `CC1(n2cccc2)CN(c2c(F)cc3c(=O)c(C(=O)O)cn(C4CC4)c3c2F)C1`, the melting point was 249 to 252 °C. Compound `N=C(N)Nc1nc(CCCCC(N)=NO)cs1` has a melting point of 167 to 168 °C. `CC(C)Oc1ccccc1-c1nc2ccc(C(=O)O)cc2c(=O)[nH]1` showed a melting point of 316 to 318 °C. `COc1ccc(S(N)(=O)=O)cc1N=Nc1c(O)c(O)c(N=Nc2cc(S(N)(=O)=O)ccc2OC)c2ccccc12` showed a melting point of 345 °C. `O=Cc1cccc(NC(=O)c2ccccc2)c1` gave a melting point of 122 to 123 °C. Work on `COc1cc(C(=O)c2ccc([N+](=O)[O-])cc2)c(CC(=O)O)cc1Br` yielded a melting point of 189 to 192 °C. `O=C1CCCC2CN(C(Cc3ccccc3)=NCc3cccs3)CC12` (stereo not drawn) gave a melting point of 114 °C. With `N#Cc1ccc(C=Nc2c3c(nc4ccccc24)CCCC3)cc1` the melting point was 204 to 205 °C. For `Cc1ccc(C=CC#N)cc1C`, the melting point was 93.9 °C. With `CCn1c(=O)c2[nH]c(/C=C/c3ccc(OC)c(OC)c3OC)nc2n(CC)c1=O` the melting point was 276 to 277 °C. Compound `CC(C)(C)c1cc(CCc2ccc(Cl)cc2NC(=O)NC2CCN(Cc3ccccc3)CC2)cc(C(C)(C)C)c1O` has a melting point of 155 to 156 °C. For `Cc1cc(C)c(-c2ccnc(Nc3ccc(F)cc3)n2)[nH]1`, the melting point was 168 to 172 °C. Work on `OCc1ccc(-c2cc3c(NCc4cccc(Cl)c4)ncnc3[nH]2)cc1` yielded a melting point of 296 to 298 °C. `COC(=O)c1ccc(Sc2cccc(OCCCCl)c2)cc1` showed a melting point of 47 to 49 °C. In the case of `CCOC(=O)N1CC(C)C2=NNC(=O)CC2C1` (stereo not drawn), the melting point was 101 to 103 °C. In the case of `CC(C)(C)OC(=O)N1CC(CC(=O)O)c2ccccc21` (single isomer, unassigned; (+)), the melting point was 137 to 138 °C. In the case of `Nc1cccc(SC2SCC(O)C(O)C2O)c1` (stereo not drawn), the melting point was 128 to 132 °C. `CC(=O)Oc1ccc(/C=C/c2cc(C)cc(C)c2)cc1` showed a melting point of 84.9 to 85 °C. Compound `Fc1ccc(-c2cc(CCC#Cc3ccccn3)on2)cc1` has a melting point of 83 to 84 °C. Work on `O=C1CC2CC[C@@H](CN3C(=O)c4ccccc4C3=O)OC2O1` (stereo partly drawn) yielded a melting point of 186 to 189 °C. Compound `C=CCN(c1ncnc2c1ncn2CC(C)O)C1CCCCC1` (stereo not drawn) has a melting point of 108 to 110 °C.
